# What was measured:
# Kunming mice = assay: Marrow micronucleus test on mice; format: in vivo; conditions: dosed 4 days, test on day 5, II-2 120, II-85 74, cyclophosphane 60 mg/kg/day
# Method: Ten Kunming mice (Experimental Animal Center, China Medical University), half male and half female, were used. Compound II-2 was administered via gastric gavage at 120 mg/kg/day, and II-85 was administered to 74 mg/kg/day. The drug was administered for 4 days continuously. Marrow micronucleus test was performed on day 5.
# Mice in positive control group were administered cyclophosphane at 60 mg/kg/day. Mice in negative control group were administered normal saline at 0.1 ml/10 g/day. The drug was administered for 4 days continuously. Marrow micronucleus test was performed on day 5.
# The mice were killed by snapping neck, and then femur and sternum were excised, with blood and muscles removed, epiphysis cut off. Then marrow from sternum was squeezed to clean glassslide with bovine serum by using a pair of hemostatic forceps, or marrow on femur was flushed directly with bovine serum onto clean glassslide. Then the substance on glassslide were mixed well and smeared. Then the prepared and dried marrow smears were put into staining tank with methanol, fixed for 15 min, picked out to dry in the open air. After marrow smears were dried, it would be stained in freshly prepared Giemsa solution (1 volume of Giemsa stock solution and 9 volumes of pH 6.8 phosphate buffer) for 10 min, staining solution was flushed away with little stream. Then the smear was dried in the open air and observed under a microscope.
# [1] = system: NA constricted rabbit aorta; assay: Relaxing effects on vascular smooth muscle constricted by noradrenaline (NA) in vitro; conditions: relaxation of rabbit aorta constricted by noradrenaline (10^−5 mol/L), mean±SEM, n=5; for EC50: Oryctolagus cuniculus
# Method: Adrenaline hydrochloride (AD) (10^−5 mol/L) was added into a bath tube to induce constriction, when maximal constriction was achieved, the sample was completely flushed, K-H solution was changed for every 20 min. Contents in the tube was balanced for 60 min, when baseline recovered to be stable, noradrenaline bitartrate (NA) (10^−5 mol/L) was added to induce constriction. When the later maximal constriction response was basically consistent with the former one, the prepared compound solutions were subsequently added, including compound II-84 to II-123 solutions (1×10^−10-1×10^−2 mol/L), compound II-124 to II-157 solutions (1×10^−10-1×10^−3 mol/L), to record the waveforms. Relaxing percentage of the compound was used as Y axis, maximal relaxation response was 100%, negative logarithm of different concentration was used as X axis, to draw dose effect curve (expressed in mean±SEM ( ? ), n=5).
# [2] = system: AD constricted rabbit aorta; assay: Relaxing effects on vascular smooth muscle constricted by adrenaline hydrochloride (AD) in vitro; conditions: relaxation of rabbit aorta constricted by adrenaline (10^−5 mol/L), mean±SEM, n=5; for EC50: Oryctolagus cuniculus
# In short: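 Rabbit aortic strips in K-H solution precontracted with adrenaline hydrochloride (10^−5 mol/L) after a reproducible second contraction; compounds added cumulatively over ranges from 1×10^−10 up to 1×10^−2 mol/L depending on the compound series. Relaxation expressed as % of maximal relaxation versus −log concentration, mean±SEM, n=5.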
# [3] = system: high kalium concentration constricted rabbit aorta; assay: Relaxing effects on vascular smooth muscle constricted by high kalium concentration in vitro; conditions: relaxation of rabbit aorta constricted by high kalium solution (K+ 60 mmol/L), mean±SEM, n=5; for EC50: Oryctolagus cuniculus
# In short: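 Rabbit aortic rings pre-challenged with adrenaline (10^−5 mol/L), washed and re-equilibrated 60 min in K-H solution, then constricted with high-K+ solution; compounds added cumulatively over 1×10^−10–1×10^−2 mol/L depending on series. Relaxation expressed as % of maximal relaxation vs −log concentration; mean±SEM, n=5.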
# 5-HT2A receptor = 5-HT2A receptor (Oryctolagus cuniculus, UniProt G1SYA7); assay: Antagonism of accumulative constriction of rabbit aorta by 5-HT
# Method: (§1) Rabbits were hit to be dizzy, with thoracic cavity quickly cut open, descending aorta exposed, connective tissues and surrounding fatty tissues (for hydroxytryptamine receptor antagonism test, endothelia should be removed with smooth stainless steel rod) removed, the aorta was cut into 3-5 mm vascular rings which were penetrated together with a steel wire with one end fixed on ventilation hook, another end on pressure tonotransducer. The aorta rings were put into a bath tube with 20 ml of nutritional solution, and the tension changes were recorded by using the recorder. The temperature of bath tube was maintained at 37±0.5° C., and mixed gas (95% O2+5% CO2) was ventilated at a rate of I-2 bubbles/second. The initial load of the sample was 1.5 g, nutritional solution was changed for every 20 min. The sample was balanced for 2 hours, and the experiment would be started when baseline became stable.
# After sample tension became stable, a piece of waveform was recorded, 5-HT (10^−7-3×10^−4 mol/L) was added into the bath tube until maximal response, then waveform was recorded. […] 5-HT was also added by using the same method 20 min later. The maximal response was considered 100%, 5-HT constriction percentage was used as Y axis, negative logarithms of different concentrations of 5-HT were used as X axis to draw dose effective curve.
# After sample tension became stable, a piece of waveform was recorded, 5-HT (10^−8-10^−3 mol/L) was added into the bath tube until maximal response, then waveform was recorded. […] 5-HT was also added by using the same method 20 min later. The maximal response was considered 100%, 5-HT constriction percentage was used as Y axis, negative logarithms of different concentrations of 5-HT were used as X axis to draw dose effective curve (data were expressed in mean±SEM ( ? ), *P<0.05, **P<0.01, n=7).
# After sample tension became stable, a piece of waveform was recorded, 5-HT (10^−8-3×10^−4 mol/L) was added into the bath tube until maximal response, then waveform was recorded. […] 5-HT was also added by using the same method 20 min later. […]
# α1 receptor = assay: Antagonism of accumulative constriction of rabbit aorta by noradrenaline (α-receptor agonist)
# Method: Then samples were flushed with K-H solution repeatedly, K-H solution was changed for every 20 min, and the samples were balanced for 60 min. After baseline recovered to be stable, doxazosin (10^−7 mol/L) was added, and noradrenaline (NA) (10^−8-6×10^−5 mol/L) was added by using the same method 15 min later.
# NA was also added by using the same method 15 min later.
# Calcium Channel (Ca^2+) = assay: Antagonism of accumulative constriction of rabbit aorta by CaCl2; conditions: calcium free high kalium depolarization
# Method: as §1
# After sample tension became stable, calcium K-H solution was used to flush the sample for 3 times, and incubated with calcium free K-H solution for 40 min. Calcium free high kalium solution was added into the sample for depolarization for 20 min, then CaCl2 (10^−6-10^−2 mol/L) was added into bath tube till maximal response was achieved, and then waveform was recorded. Then K-H solution was used to flush the sample repeatedly, the K-H solution was changed for every 20 min, and the sample was balanced for 60 min. […]
# After sample tension became stable, calcium K-H solution was used to flush the sample for 3 times, and incubated with calcium free K-H solution for 40 min. Calcium free high kalium solution was added into the sample for depolarization for 20 min, then CaCl2 (10^−6-10^−2 mol/L) was added into bath tube till maximal response was achieved, and then waveform was recorded. […] Calcium free high kalium solution was added into the sample for depolarization for 20 min, then amlodipine (10^−7 mol/L) was added into bath tube, which was incubated for 15 min, then CaCl2 (10^−6-10^−2 mol/L) was added by using the same method till maximal response was achieved, and then waveform was recorded. […]
# Chain of 5-HT2A receptor (G1SYA7 1-469): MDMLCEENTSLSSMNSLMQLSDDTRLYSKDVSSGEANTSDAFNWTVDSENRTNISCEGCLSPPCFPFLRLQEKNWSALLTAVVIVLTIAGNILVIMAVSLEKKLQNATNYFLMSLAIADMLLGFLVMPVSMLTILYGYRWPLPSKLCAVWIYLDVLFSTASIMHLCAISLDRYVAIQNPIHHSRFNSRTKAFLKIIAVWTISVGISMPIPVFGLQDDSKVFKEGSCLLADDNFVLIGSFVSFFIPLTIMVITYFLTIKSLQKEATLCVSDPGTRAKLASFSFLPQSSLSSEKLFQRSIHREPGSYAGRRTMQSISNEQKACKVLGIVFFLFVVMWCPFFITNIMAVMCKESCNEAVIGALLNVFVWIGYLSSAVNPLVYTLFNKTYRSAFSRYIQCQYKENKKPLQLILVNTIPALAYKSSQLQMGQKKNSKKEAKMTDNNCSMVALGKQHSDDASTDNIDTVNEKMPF
EC50 [1] [µM],EC50 [2] [µM],Structure (SMILES),−logEC50 [2],−logEC50 [3],also measured
–,–,"O=P1(N(CCCl)CCCl)NCCCO1 (stereo not drawn) [cyclophosphane, reference compound]",–,–,micronuclei cells in 1000 polychromatic erythrocytes (Kunming mice): 12%
–,–,"Fc1ccc2c(C3CCN(CCCn4nnc5ccc(F)cc54)CC3)noc2c1 [II-88, N-(3-(6-fluoro-1H-benzotriazole-1-yl)propyl)-4-(3-(6-fluorobenzisoxazolyl))piperidine]",5.61 ± 0.05,4.72 ± 0.05,−logEC50 [1]: 5.73 ± 0.05
4.37,–,"FC(F)(F)c1cccc(C2CCN(CCCOn3nnc4ccccc43)CC2)c1 [II-116, N-(4-(1H-benzotriazole-1-yl)propoxyl)-4-(3-trifluoromethylphenyl)piperidine]",5.56 ± 0.05,4.22 ± 0.05,–
1.86,–,"O=Cc1ccc2nnn(CCCN3CCC(c4noc5cc(F)ccc45)CC3)c2c1 [II-92, N-(3-(6-formoxyl-1H-benzotriazole-1-yl)propyl)-4-(3-(6-fluorobenzisoxazolyl))piperidine]",5.56 ± 0.04,4.32 ± 0.04,–
91.2,55,c1ccc2c(c1)nnn2OCCN1CCC(c2noc3ccccc23)CC1 [II-148],–,–,EC50 [3]: 55 µM
–,–,"Cc1ccc2c(C3CCN(CCCn4nnc5ccccc54)CC3)noc2c1 [II-86, N-(3-(1H-benzotriazole-1-yl)propyl)-4-(3-(6-methylbenzisoxazolyl))piperidine]",5.45 ± 0.04,4.09 ± 0.04,−logEC50 [1]: 5.26 ± 0.04
21.9,–,"c1ccc2c(c1)ncn2CCCCN1CCC(c2ccncc2)CC1 [II-119, N-(4-(1H-benzimidazoyl-1-yl)butyl)-4-(4-pyridyl)piperidine]",4.86 ± 0.04,3.26 ± 0.04,–
30.2,19.1,"c1cnc(C2CCN(CCCCn3cnc4ccccc43)CC2)nc1 [II-120, N-(4-(1H-benzimidazoyl-1-yl)butyl)-4-(2-pyrimidinyl)piperidine]",–,3.32 ± 0.02,–
49,93.3,"COc1ccc2nnn(OCCN3CCC(c4noc5cc(F)ccc45)CC3)c2c1 [II-98, N-(2-(6-methoxylbenzotriazolyl)ethoxyl)-4-(3-(6-fluorobenzisoxazolyl))piperidine]",–,–,EC50 [3]: 295 µM
–,–,"Fc1ccc2c(C3CCN(CCCn4nnc5ccc(Cl)cc54)CC3)noc2c1 [II-89, N-(3-(6-chloro-1H-benzotriazole-1-yl)propyl)-4-(3-(6-fluorobenzisoxazolyl))piperidine]",5.42 ± 0.04,4.12 ± 0.04,−logEC50 [1]: 5.22 ± 0.04
0.479,–,"FC(F)(F)c1cccc(C2CCN(CCCCn3cnc4ccccc43)CC2)c1 [II-109, N-(4-(1H-benzimidazoyl-1-yl)butyl)-4-(3-trifluoromethylphenyl)piperidine]",6.21 ± 0.04,5.01 ± 0.04,–
45.7,60.3,"c1ccc2c(C3CCN(CCCCn4nnc5ccccc54)CC3)cccc2c1 [II-122, N-(4-(1H-benzotriazole-1-yl)butyl)-4-(1-naphthyl)piperidine]",–,3.04 ± 0.03,–
28.2,–,"COc1ccccc1C1CCN(CCCCn2cnc3ccccc32)CC1 [II-112, N-(4-(1H-benzimidazoyl-1-yl)butyl)-4-(2-methoxylphenyl)piperidine]",4.76 ± 0.03,3.38 ± 0.03,–
49,93.3,"COc1ccc2nnn(OCCN3CCC(c4noc5ccccc45)CC3)c2c1 [II-147, N-(2-(6-methoxylbenzotriazolyl)ethoxyl)-4-(3-benzisoxazolyl)piperidine]",–,–,EC50 [3]: 295 µM
6.17,–,"Fc1ccc2nnn(CCCCN3CCC(c4cccc(C(F)(F)F)c4)CC3)c2c1 [II-113, N-(4-(6-fluoro-1H-benzotriazole-1-yl)butyl)-4-(3-trifluoromethylphenyl)piperidine]",5.31 ± 0.04,4.03 ± 0.04,–
–,–,"COc1ccc2c(C3CCN(CCCn4nnc5ccccc54)CC3)noc2c1 [II-87, N-(3-(1H-benzotriazole-1-yl)propyl)-4-(3-(6-methoxylbenzisoxazolyl))piperidine]",5.34 ± 0.03,4.12 ± 0.03,−logEC50 [1]: 5.04 ± 0.03
0.851,–,"COc1ccc2nnn(CCCN3CCC(c4noc5ccccc45)CC3)c2c1 [II-93, N-(3-(6-methoxylbenzotriazolyl)propyl)-4-(3-benzisoxazolyl)piperidine]",6.11 ± 0.07,4.11 ± 0.03,–
21.4,–,"Fc1cccc(C2CCN(CCCCn3cnc4ccccc43)CC2)c1 [II-111, N-(4-(1H-benzimidazoyl-1-yl)butyl)-4-(3-fluorophenyl)piperidine]",4.89 ± 0.02,3.44 ± 0.02,–
5.37,–,"Clc1cccc(C2CCN(CCCCn3nnc4ccccc43)CC2)c1 [II-108, N-(4-(1H-benzotriazole-1-yl)butyl)-4-(3-chlorophenyl)piperidine]",5.16 ± 0.03,3.82 ± 0.03,–
91.2,55,"Fc1ccc2c(C3CCN(CCOn4nnc5ccccc54)CC3)noc2c1 [II-99, N-(2-(1-benzotriazolyl)ethoxyl)-4-(3-(6-fluorobenzisoxazolyl))piperidine]",–,–,EC50 [3]: 550 µM
7.08,–,"FC(F)(F)c1cccc(C2CCN(CCCOn3cnc4ccccc43)CC2)c1 [II-117, N-(4-(1H-benzimidazole-1-yl)propoxyl)-4-(3-trifluoromethylphenyl)piperidine]",5.31 ± 0.06,4.17 ± 0.06,–
4.47,–,"Cc1ccc2nnn(CCCN3CCC(c4noc5cc(F)ccc45)CC3)c2c1 [II-90, N-(3-(6-methyl-1H-benzotriazole-1-yl)propyl)-4-(3-(6-fluorobenzisoxazolyl))piperidine]",5.38 ± 0.03,4.28 ± 0.03,–
29.5,14.8,"c1ccc2nc(C3CCN(CCCCn4nnc5ccccc54)CC3)cnc2c1 [II-123, N-(4-(1H-benzotriazole-1-yl)butyl)-4-(2-quinoxalinyl)piperidine]",–,3.13 ± 0.04,–

Structure (SMILES),EC50 [1] [µM],EC50 [2] [µM],−logEC50 [2],−logEC50 [3],also measured
"FC(F)(F)c1cccc(N2CCN(CCCCn3nnc4ccccc43)CC2)c1 [II-31, 1-(4-(4-(3-trifluoromethylphenyl)piperazine-1-yl)butyl)-1H-benzotriazole]",–,0.646,–,–,Kb (5-HT2A receptor): 0.188 µM; PA2 value to resist constriction of rabbit aorta by NA (α1 receptor): 6.02±0.13; EC50 [3]: 2.82 µM; PA2 value to resist constriction of rabbit aorta by CaCl2 (Calcium Channel (Ca^2+)): 6.56±0.032

# Reference: patent publication US9415047B2, “Use of benzo five-membered nitrogen heterocyclic piperazine or piperidine derivatives” (Liaoning Emmy Biological Pharmaceutical Co., Ltd., priority 2012, dated 2016)
